Measured values taken from patent publication US5686563A, “Biologically active peptides having n-terminal substitutions” (priority 1995, dated 1997).
Square brackets hold non-standard residues; d marks the D form. Ends that are not written are not given here. Peptide text beside a SMILES is read from it. * marks the point of attachment. hArg = N=C(N)NCCCC[C@H](N)C(=O)O; Octanoyl = CCCCCCCC(=O)*

Key:
Test in all cases: Anaerobic antimicrobial susceptibility test (MIC)
Format in all cases: cell-based
P. gingivalis = details: 37° C., 24-48 hours; for MIC P. gingivalis (strain) W50: strain W50, BHI broth; for MIC P. gingivalis (strain) 9-14K-1: strain 9-14K-1, BHI broth; for MIC P. gingivalis (strain) 381: strain 381, BHI broth; for MIC P. gingivalis (strain) A7A1-28: strain A7A1-28, BHI broth; for MIC P. gingivalis (strain) FAY-19M-1: strain FAY-19M-1, BHI broth
S. mutans = details: BHI broth, 37° C., 24-48 hours
A. viscosus = details: BHI broth, 37° C., 24-48 hours

CC[C@H](C)[C@H](NC(=O)[C@H](CCCCNC(=N)N)NC(=O)CNC(=O)[C@H](C)NC(=O)[C@@H](NC(=O)[C@H](CCCCNC(=N)N)NC(=O)[C@H](C)NC(=O)[C@@H](NC(=O)[C@H](CCCCNC(=N)N)NC(=O)CNC(=O)[C@H](C)NC(=O)[C@@H](NC(=O)[C@H](CCCCNC(=N)N)NC(=O)[C@H](C)NC(=O)[C@@H](NC(=O)[C@H](CCCCNC(=N)N)NC(=O)CNC(=O)[C@H](C)NC(=O)[C@@H](NC(=O)[C@@H](N)CCCCNC(=N)N)[C@@H](C)CC)[C@@H](C)CC)[C@@H](C)CC)[C@@H](C)CC)[C@@H](C)CC)C(=O)N[C@@H](C)C(N)=O [(SEQ ID NO: 66)-NH2] (H-[hArg]IAG[hArg]IA[hArg]IAG[hArg]IA[hArg]IAG[hArg]IA-NH2)
MIC P. gingivalis (strain) W50 (P. gingivalis): 4 μl/ml

CCCCCCCC(=O)N[C@@H](CCCCN)C(=O)N[C@H](C(=O)N[C@@H](C)C(=O)NCC(=O)N[C@@H](CCCCN)C(=O)N[C@H](C(=O)N[C@@H](C)C(=O)N[C@@H](CCCCN)C(=O)N[C@H](C(=O)N[C@@H](C)C(=O)NCC(=O)N[C@@H](CCCCN)C(=O)N[C@H](C(=O)N[C@@H](C)C(=O)N[C@@H](CCCCN)C(=O)N[C@H](C(=O)N[C@@H](C)C(=O)NCC(=O)N[C@@H](CCCCN)C(=O)N[C@H](C(=O)N[C@@H](C)C(N)=O)[C@@H](C)CC)[C@@H](C)CC)[C@@H](C)CC)[C@@H](C)CC)[C@@H](C)CC)[C@@H](C)CC [Oct-(SEQ ID NO: 27)-NH2] (Octanoyl-KIAGKIAKIAGKIAKIAGKIA-NH2)
MIC P. gingivalis (strain) W50 (P. gingivalis): 16 μl/ml

CCCCCCCC(=O)N[C@@H](CCCCN)C(=O)N[C@H](C(=O)N[C@@H](C)C(=O)NCC(=O)N[C@@H](CCCCN)C(=O)N[C@H](C(=O)N[C@@H](C)C(=O)N[C@@H](CCCCN)C(=O)N[C@H](C(=O)N[C@@H](C)C(=O)NCC(=O)N[C@@H](CCCCN)C(=O)N[C@H](C(=O)N[C@@H](C)C(=O)N[C@@H](CCCCN)C(=O)N[C@H](C(=O)N[C@@H](C)C(=O)NCC(=O)N[C@@H](CCCCN)C(=O)N[C@H](C(=O)N[C@@H](C)C(=O)O)[C@@H](C)CC)[C@@H](C)CC)[C@@H](C)CC)[C@@H](C)CC)[C@@H](C)CC)[C@@H](C)CC [Oct-(SEQ ID NO: 27)-OH] (Octanoyl-KIAGKIAKIAGKIAKIAGKIA-OH)
MIC P. gingivalis (strain) W50 (P. gingivalis): 1 μl/ml

CCCCCCCC(=O)N[C@@H](CCCCNC(=N)N)C(=O)N[C@H](C(=O)N[C@@H](C)C(=O)NCC(=O)N[C@@H](CCCCNC(=N)N)C(=O)N[C@H](C(=O)N[C@@H](C)C(=O)N[C@@H](CCCCNC(=N)N)C(=O)N[C@H](C(=O)N[C@@H](C)C(=O)NCC(=O)N[C@@H](CCCCNC(=N)N)C(=O)N[C@H](C(=O)N[C@@H](C)C(=O)N[C@@H](CCCCNC(=N)N)C(=O)N[C@H](C(=O)N[C@@H](C)C(=O)NCC(=O)N[C@@H](CCCCNC(=N)N)C(=O)N[C@H](C(=O)N[C@@H](C)C(N)=O)[C@@H](C)CC)[C@@H](C)CC)[C@@H](C)CC)[C@@H](C)CC)[C@@H](C)CC)[C@@H](C)CC [Oct-(SEQ ID NO: 66)-NH2] (Octanoyl-[hArg]IAG[hArg]IA[hArg]IAG[hArg]IA[hArg]IAG[hArg]IA-NH2)
MIC P. gingivalis (strain) W50 (P. gingivalis): 2 μl/ml

CCCCCCCC(=O)N[C@@H](CCCCN)C(=O)N[C@H](C(=O)N[C@@H](C)C(=O)N[C@@H](CCCCN)C(=O)N[C@@H](CCCCN)C(=O)N[C@H](C(=O)N[C@@H](C)C(=O)N[C@@H](CCCCN)C(=O)N[C@H](C(=O)N[C@@H](C)C(=O)N[C@@H](CCCCN)C(=O)N[C@@H](CCCCN)C(=O)N[C@H](C(=O)N[C@@H](C)C(=O)N[C@@H](CCCCN)C(=O)N[C@H](C(=O)N[C@@H](C)C(=O)N[C@@H](CCCCN)C(=O)N[C@@H](CCCCN)C(=O)N[C@H](C(=O)N[C@@H](C)C(=O)O)[C@@H](C)CC)[C@@H](C)CC)[C@@H](C)CC)[C@@H](C)CC)[C@@H](C)CC)[C@@H](C)CC [Oct-(SEQ ID NO: 86)-OH] (Octanoyl-KIAKKIAKIAKKIAKIAKKIA-OH)
MIC P. gingivalis (strain) W50 (P. gingivalis): 1 μl/ml

(SEQ ID NO: 86)-OH: (Lys Ile Ala Lys Lys Ile Ala)3 unsubstituted at the N-terminal, C-terminal OH (H-KIAKKIAKIAKKIAKIAKKIA-OH)
MIC P. gingivalis (strain) 9-14K-1 (P. gingivalis): 16 μl/ml
MIC P. gingivalis (strain) 381 (P. gingivalis): 16 μl/ml
MIC P. gingivalis (strain) A7A1-28 (P. gingivalis): 4 μl/ml
MIC P. gingivalis (strain) FAY-19M-1 (P. gingivalis): 8 μl/ml
MIC P. gingivalis (strain) W50 (P. gingivalis): 4 μl/ml
MIC S. mutans (S. mutans): 16 μl/ml
MIC A. viscos (A. viscosus): 32 μl/ml

KIAGKIAKIAGKIAKIAGKIA-NH2 [(SEQ ID NO: 27)-NH2]
MIC P. gingivalis (strain) W50 (P. gingivalis): 4 μl/ml

KIAKKIAKIAKKIAKIAKKIA-NH2 [(SEQ ID NO: 86)-NH2]
MIC P. gingivalis (strain) 9-14K-1 (P. gingivalis): 8 μl/ml
MIC P. gingivalis (strain) 381 (P. gingivalis): 8 μl/ml
MIC P. gingivalis (strain) A7A1-28 (P. gingivalis): 2 μl/ml
MIC P. gingivalis (strain) W50 (P. gingivalis): 4 μl/ml
MIC S. mutans (S. mutans): 4 μl/ml
MIC A. viscos (A. viscosus): 16 μl/ml

KVALKALKKVALKALKVALKAL-NH2 [(SEQ ID NO: 152)-NH2]
MIC P. gingivalis (strain) 9-14K-1 (P. gingivalis): 4 μl/ml
MIC P. gingivalis (strain) 381 (P. gingivalis): 32 μl/ml
MIC P. gingivalis (strain) A7A1-28 (P. gingivalis): 4,8 μl/ml
MIC P. gingivalis (strain) FAY-19M-1 (P. gingivalis): 8 μl/ml
MIC P. gingivalis (strain) W50 (P. gingivalis): 4 μl/ml
MIC S. mutans (S. mutans): 16 μl/ml
MIC A. viscos (A. viscosus): 16 μl/ml
